Measured values from patent US8772495B2, “5-lipoxygenase-activating protein inhibitor” (Panmira Pharmaceuticals, LLC, priority 2008, dated 2014).
“And” between values parts separate entries of the source, which are not always exact repeats. Identical values can stand only once. Marks after values point to notes of the source that are not given here.

Experiments:
[1] = test system: LTB4 in Washed Human Leukocytes; assay: Inhibition of LTB4 in washed human leukocytes; type: cell-based; conditions: individual tests 1-4
[2] = in vivo, po, 250 mg/kg/day
Experimental: Twenty-four hours following the final drug administration mice were placed into an enclosed Plexiglas chamber and exposed to CO2 for a period of 30-60 seconds or until breathing ceased. They were then removed subject to cervical dislocation and blood taken via a cardiac puncture. Mice were next placed in a supine position and a midline incision made. All organs were inspected and the livers removed by careful dissection. Liver weights were recorded as well as any gross abnormalities.

CYP2C9 [3] = molecular target: T1, CYP2C9 (Homo sapiens (Human), UniProt P11712); assay: Extracellular cytochrome P450 inhibition (microsomes); type: in vitro ADME; conditions: concentrations up to and exceeding 40 μM
Experimental: Aliquots of this mixture (89 μL) were delivered to each well of a 96-well polypropylene plate which contained an aliquot of inhibitor (1 μL). Final solvent concentrations were 1% (v/v) or less. Incubations were commenced with the addition of 10 μL β-NADPH (10 mM stock) to a final volume of 100 μL. […] Samples were centrifuged, and supernatant was transferred for LC-MS analysis.

[4] = Plasma binding (equilibrium dialysis); type: in vitro ADME, Monkey (cynomologus); conditions: monkey plasma, read-out: % Bound (converted)
Experimental: Experiments were performed using equilibrium dialysis.

[5] = Liquid formulations for oral solutions/suspensions; type: physicochemical
Experimental: Values of pH reported were estimated based on pH indicating strips. […] Accordingly, provided in certain embodiments herein were formulations having a pH above about 9, above about 10 or of about 10. In certain embodiments, the formulation was buffered at a pH of about 10. All formulations prepared were sonicated for about 10 minutes.

CYP2C9 [6] = molecular target: T1, CYP2C9; assay: Cellular cytochrome P450 induction in cryopreserved human hepatocytes; conditions: tested at 10 μM, diclofenac substrate
[7] = test system: whole blood ionophore-stimulated leukotriene LTB4; assay: Phase I study: ex vivo ionophore-stimulated LTB4; type: in vivo, human
From the text: Study Design: Single center, double-blind, randomized, placebo-controlled, single ascending dose followed by multiple ascending dose study.
Sample Size: (1) Single Dose Phase: eight (8) subjects (6 active, 2 placebo) per dose level; up to 5 dose levels are planned (a total of 40 subjects if all 5 dose levels are completed); and (2) Multiple Dose Phase: eight (8) subjects (6 active, 2 placebo) per dose level; up to 4 dose levels are planned (a total of 32 subjects if all 4 dose levels are completed).
Formulations: Compound 2 was supplied as an oral powder for reconstitution. Placebo solution matched. […] The placebo differed only in the absence of the active.
The following dosing cohorts were used:
Routes of Administration: All doses were administered orally with approximately 100 mL of water rinse. Subjects were fasted for at least 8 hours prior to dosing and for 2 hours after dosing. For BID dosing in the Multiple Dose Phase, when applicable, subjects were fasted for at least 2 hours prior to the second daily dose.
Plasma concentrations of Compound 1 were determined using a validated LC/MS method. Whole blood ionophore-stimulated leukotriene LTB4 and urinary LTE4 production were assayed by ELISA and mass spectrometry, respectively.
Analysis of Samples: Concentrations of Compound 1 was determined in plasma samples collected from subjects. Similarly, concentrations of LTB4 in plasma and urinary LTE4 were determined in blood and urine samples collected.

[8] = test system: LTB4 in Human Whole Blood; assay: Human blood LTB4 inhibition assay; type: cell-based; conditions: individual tests 1-8
Experimental: A non-limiting example of such a human blood LTB4 inhibition assay is as follows: Blood was drawn from consenting human volunteers into heparinized tubes and 125 μL aliquots added to wells containing 2.5 μL 50% dimethylsulfoxide (vehicle) or 2.5 μL drug in 50% dimethylsulfoxide. Samples were incubated for 15 minutes at 37° C. 2 μL calcium ionophore A23817 (from a 50 mM dimethylsulfoxide stock diluted just prior to the assay in Hanks balanced salt solution (Invitrogen)) to 1.25 mM) was added, solutions mixed and incubated for 30 minutes at 37° C. Samples were centrifuged at 1,000 rpm (˜200×g) for 10 minutes at 4° C., plasma removed and a 1:100 dilution assayed for LTB4 concentration using ELISA (Assay Designs). Drug concentrations to achieve 50% inhibition (IC50's) of vehicle LTB4 were determined by nonlinear regression (Graphpad Prism) of % inhibition versus log drug concentration.

T1 sequence (P11712 whole entry, looked up): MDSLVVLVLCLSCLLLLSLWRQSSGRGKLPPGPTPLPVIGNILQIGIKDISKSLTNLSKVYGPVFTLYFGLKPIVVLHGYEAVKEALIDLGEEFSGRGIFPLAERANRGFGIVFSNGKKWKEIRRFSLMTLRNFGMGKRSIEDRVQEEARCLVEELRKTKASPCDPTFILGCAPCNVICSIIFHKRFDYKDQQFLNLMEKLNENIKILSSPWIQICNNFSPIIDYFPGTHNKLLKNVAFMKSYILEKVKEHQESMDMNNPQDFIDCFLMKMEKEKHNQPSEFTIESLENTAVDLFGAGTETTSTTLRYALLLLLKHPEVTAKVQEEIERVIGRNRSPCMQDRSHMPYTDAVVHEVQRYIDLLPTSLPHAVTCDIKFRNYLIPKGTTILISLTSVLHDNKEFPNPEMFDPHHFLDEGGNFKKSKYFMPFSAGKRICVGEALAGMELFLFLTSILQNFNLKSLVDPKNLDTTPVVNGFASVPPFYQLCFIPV

## CCOc1ccc(-c2ccc(Cn3c(CC(C)(C)C(=O)[O-])c(SC(C)(C)C)c4cc(OCc5ccc(C)cn5)ccc43)cc2)cn1.[Na+] [Compound 2, sodium 3-[3-(tert-butylsulfanyl)-1-[4-(6-ethoxy-pyridin-3-yl)benzyl]-5-(5-methyl-pyridin-2-yl-methoxy)-1H-indol-2-yl]-2,2-dimethylpropionate]
[1]
  IC50: 0.49 nM and 0.87 nM and 0.22 nM and 0.17 nM
  IC90: 0.77 nM and 1.03 nM and 0.46 nM and 0.41 nM
[2]; female, CD-1, mouse, 4 days
  Liver weight: 1.2 ± 0.1
  Liver weight (% body weight): 4.4 % body weight
  liver weight change as compared to vehicle control: 5%
[2]; mouse
  necropsy findings: no gross abnormalities
CYP2C9 [3]
  apparent inhibition: No apparent inhibition
[4]
  fraction unbound at 10 μM: 0.003
[5]; 0.010 M sodium carbonate buffer, 1% v/v Lutrol and 0.05% splenda, pH 10, ~10 mg/mL
  Results (appearance of formulation): Clear solution
[5]; 0.010 M sodium carbonate buffer, 2% v/v ethanol and 0.05% splenda, pH 10, 10 mg/mL
  Results (appearance of formulation): Clear solution
[5]; 0.010 M sodium carbonate buffer, 5% v/v Ethanol and 0.05% splenda, pH 10, ~10 mg/mL
  Results (appearance of formulation): Some undissolved solid
[5]; 0.010 M sodium carbonate buffer, 5% v/v Simple syrup, pH 10, 10 mg/mL
  Results (appearance of formulation): Some undissolved solid
[5]; 0.010 M sodium carbonate buffer, pH 10, 10 mg/mL
  Results (appearance of formulation): Clear solution
[5]; 0.5% Methylcellulose, 3.33 mg/mL
  Results (appearance of formulation): Suspension
CYP2C9 [6]
  CYP2C9 induction: No apparent induction
[7]; multiple dose 10 mg, Day 1
  tE>50% (time above 50% LTB4 inhibition): 17.5 h
  tE>90% (time above 90% LTB4 inhibition): 0.0 h
[7]; multiple dose 10 mg, Day 11
  tE>50% (time above 50% LTB4 inhibition): 27.4 h
  tE>90% (time above 90% LTB4 inhibition): 0.0 h
[7]; multiple dose 50 mg, Day 1
  tE>50% (time above 50% LTB4 inhibition): >23.3 h
  tE>90% (time above 90% LTB4 inhibition): 0.0 h
[7]; multiple dose 50 mg, Day 11
  tE>50% (time above 50% LTB4 inhibition): 42.4 h
  tE>90% (time above 90% LTB4 inhibition): 10.0 h
[7]; multiple dose 150 mg, Day 1
  tE>50% (time above 50% LTB4 inhibition): >23.4 h
  tE>90% (time above 90% LTB4 inhibition): 15.1 h
[7]; multiple dose 150 mg, Day 11
  tE>50% (time above 50% LTB4 inhibition): >72.0 h
  tE>90% (time above 90% LTB4 inhibition): 52.4 h
[7]; multiple dose 450 mg, Day 1
  tE>50% (time above 50% LTB4 inhibition): >23.7 h
  tE>90% (time above 90% LTB4 inhibition): 17.4 h
[7]; multiple dose 450 mg, Day 11
  tE>50% (time above 50% LTB4 inhibition): >72.0 h
  tE>90% (time above 90% LTB4 inhibition): 50.4 h
[7]; single dose 50 mg
  LTB4 level at t = 24 hrs.: 37 ± 4.7 % of baseline
[7]; single dose 50 mg, Day 1
  tE>50% (time above 50% LTB4 inhibition): 32.2 h
  tE>90% (time above 90% LTB4 inhibition): 0.0 h
[7]; single dose 150 mg
  LTB4 level at t = 24 hrs.: 24 ± 4.4 % of baseline
[7]; single dose 150 mg, Day 1
  tE>50% (time above 50% LTB4 inhibition): 41.9 h
  tE>90% (time above 90% LTB4 inhibition): 14.2 h
[7]; single dose 300 mg
  LTB4 level at t = 24 hrs.: 23 ± 8.3 % of baseline
[7]; single dose 300 mg, Day 1
  tE>90% (time above 90% LTB4 inhibition): 16.1 h
[7]; single dose 300 mg, Day 1, estimated
  tE>50% (time above 50% LTB4 inhibition): 30^# h
[7]; single dose 600 mg
  LTB4 level at t = 24 hrs.: 1.6 ± 0.98 % of baseline
[7]; single dose 600 mg, Day 1
  tE>50% (time above 50% LTB4 inhibition): >71.7 h
  tE>90% (time above 90% LTB4 inhibition): 67.2 h
[7]; single dose 1000 mg
  LTB4 level at t = 24 hrs.: 1.9 ± 0.41 % of baseline
[7]; single dose 1000 mg, Day 1
  tE>50% (time above 50% LTB4 inhibition): >71.7 h
  tE>90% (time above 90% LTB4 inhibition): 42.6 h
[8]
  IC50: 552 nM and 645 nM and 563 nM and 410 nM and 642 nM and 482 nM and 310 nM and 444 nM
  IC90: 3440 nM and 1220 nM and 1550 nM and 810 nM and 1050 nM and 790 nM and 360 nM and 1240 nM
